From paper PMC10100968, “The Role of Glutamine Synthetase in Regulating Ammonium Assimilation and Iron-Only Nitrogenase Expression in a Photosynthetic Diazotroph” (Microbiology Spectrum, 2023) come the findings set out here.

Experiment [1] has as its target T1, GlnA1 (Rhodopseudomonas palustris, UniProt Q6N5K7).
T1 construct: gene glnA; GSI dodecamer; adenylylated at Tyr398 when made in nitrogen-replete medium
Nature of the experiment: gamma-glutamylhydroxamate formation, absorbance at […] nm. The format is biochemical. The note with it: 10 mM ATP, 40 mM MgSO4, 10 mM cysteine, 1 mM EDTA, pH 7.5, 30 °C, deadenylylated enzyme from nitrogen-limited cells.

The target in experiment [2] is T2, GlnA1 (Rhodopseudomonas palustris, UniProt Q6N5K7, Y398A).
T2 construct: gene glnA; GSI dodecamer; adenylylated at Tyr398 when made in nitrogen-replete medium
T2 sequence (Q6N5K7 entry or part of it Y398A): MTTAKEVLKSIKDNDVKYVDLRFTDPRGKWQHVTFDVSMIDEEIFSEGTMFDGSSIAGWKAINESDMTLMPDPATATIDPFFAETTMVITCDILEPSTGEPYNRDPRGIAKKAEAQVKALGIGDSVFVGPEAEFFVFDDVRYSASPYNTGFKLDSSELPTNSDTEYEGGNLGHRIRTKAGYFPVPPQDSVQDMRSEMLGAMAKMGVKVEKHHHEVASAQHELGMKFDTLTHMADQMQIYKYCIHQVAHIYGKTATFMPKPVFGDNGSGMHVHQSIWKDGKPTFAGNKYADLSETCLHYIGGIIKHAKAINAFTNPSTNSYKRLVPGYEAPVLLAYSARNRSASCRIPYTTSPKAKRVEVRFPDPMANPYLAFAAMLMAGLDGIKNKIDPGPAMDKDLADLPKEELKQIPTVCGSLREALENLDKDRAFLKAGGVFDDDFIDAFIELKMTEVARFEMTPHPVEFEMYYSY
Described as above. The format is biochemical. The note with it: 10 mM ATP, 40 mM hydroxylamine, 40 mM MgSO4, 10 mM cysteine, 1 mM EDTA, pH 7.5, 30 °C; enzyme from LB-grown cells.

T1 sequence (Q6N5K7 entry or part of it): as the sequence (Q6N5K7 entry or part of it Y398A) above, with A398Y counted along it

Take `NO` [hydroxylamine]: on GlnA1 [1] (10 mM L-glutamate), the specific activity result is “A large proportion of GlnA1 was deadenylated via mass spectrometric analysis”. For `N[C@@H](CCC(=O)O)C(=O)O` [l-glutamate], the specific activity result at GlnA1 [2] is “GlnA1^Y398A purified from E. coli cells that were grown in LB medium showed a significantly”; on GlnA1 [1] (40 mM hydroxylamine), “A large proportion of GlnA1 was deadenylated via mass spectrometric analysis”.
